This note sets out measurements from ChEMBL document CHEMBL3507680, “University of Dundee, Gates Library screen for HepG2 cell viability”.

The data set is described as follows: Human HepG2 cell viability assay in 384 well format. In kind it is toxicity, cell-based. Further details: dose 125 nL, time 70.5 hour; concentration not given beside the values. Conditions: HepG2 cells, read-out: Inhibition.
As to `CN(C)C(=O)CCc1cncc(C2CCCN2Cc2ccccn2)n1` (centres undefined), the cytotoxicity at 70.5 h was -6.05%.
In the case of `Cn1ccc(C(=O)N2CCC(Cc3cccc4ncccc34)CC2)n1` it was -6.71%; in that of `Cc1cc(N2CCCC(c3n[nH]c4ncccc34)C2)ncn1` (centres undefined), -4.69%; in that of `NC(=O)CN1CCCC1c1csc(Nc2cnccn2)n1` (centres undefined), -9.23%.
Consider `Cn1cc(CN2CCC(c3[nH]ncc3S(C)(=O)=O)C2)cn1` (centres undefined), for which the cytotoxicity at 70.5 h was -2.27%.
In the case of `CN1CCc2nc(C3CCCN(C(=O)CC(C)(C)C)C3)ncc2C1` (centres undefined) it was -6.36%; in that of `Cc1cnccc1CN1CC[C@@](C)(O)[C@H](Oc2cccc(F)c2)C1`, -1.49%; in that of `Cn1cncc1CN1CC[C@](C)(O)[C@@H](Oc2cccc(F)c2)C1`, 13.9%.
Consider `CO[C@H]1CCN(C(=O)c2ccc3oc(C)cc3c2)C[C@@]12CCCO2`, for which the cytotoxicity at 70.5 h was -5.42%.
As to `Cc1nccc(CN2CC[C@@]3(CCCN3Cc3ccccc3)[C@@H](O)C2)n1`, the cytotoxicity at 70.5 h was 1.99%.
As to `Cc1cccnc1CN1CC[C@H](Oc2cccc(F)c2)[C@@](C)(O)C1`, the cytotoxicity at 70.5 h was -0.828%.
Regarding `C[C@]1(O)CN(CCO)CC[C@@H]1Oc1cccc(F)c1`, the cytotoxicity at 70.5 h is -2.99%.
To `Cc1ccc(CN2CCCC(c3cncc(C)n3)C2)cn1` (centres undefined) belongs -2.94%; to `Cc1cnc(CC2COCCN(Cc3nccn3C)C2)cn1` (centres undefined), -1.89%; to `Cn1ccnc1CC1CCCN(C(=O)Cc2ccccc2)C1` (centres undefined), -1.68%.
In the case of `CC(C)N1CCC(c2cc(C(F)(F)F)n3ccnc3n2)CC1` it was 12.6%; in that of `CC(=O)N1CCN([C@@H]2CCC[C@@H](N(C)C(=O)C3CC3)[C@H]2O)CC1`, -1.88%; in that of `CNc1nc(C2CCCN2C(C)=O)nc2c1CN(C1CCCC1)CC2` (centres undefined), -4.73%.
On to `Cc1csc(C(=O)N2CCC(O)(CN3CCc4ccccc4C3)C2)c1` (centres undefined), for which the cytotoxicity at 70.5 h is -3.4%.
With `CN(C)S(=O)(=O)N1CCCC1c1cccc(-n2ccnc2)n1` (centres undefined), the cytotoxicity at 70.5 h is -4.96%.
In the case of `O=S(=O)(c1ccc(F)cc1)N1CCCCC1c1cc[nH]n1` (centres undefined) it was -6.41%; in that of `O=S(=O)(c1ccccc1F)N1CCCCC1c1cc[nH]n1` (centres undefined), -5%; in that of `Cc1cccc(C(=O)N2CCCCC2c2[nH]ncc2S(C)(=O)=O)c1` (centres undefined), -2.12%.
In the case of `CNc1cncc(C2CCCN2C(=O)Cn2c(=O)oc3ccccc32)n1` (centres undefined) it was -5.11%; in that of `O=C1CCCN1CCCC(=O)N1CCCC(Cc2cccnc2)C1` (centres undefined), -4.43%.
`CNc1cncc(C2CCCN2C(=O)c2ccc3nc(C)[nH]c3c2)n1` (centres undefined): the cytotoxicity at 70.5 h is -3.29%.
`Cc1ncsc1-c1nnc(C2CCN(Cc3ccccc3F)CC2)o1`: the cytotoxicity at 70.5 h was -0.587%.
To `CC(C)c1nccn1-c1cncc(C2CCCN(C3CCCC3)C2)n1` (centres undefined) belongs 19.3%; to `O=C(C1CCCC1)N1CCCC(c2cccc(-n3ccnc3)n2)C1` (centres undefined), 16.6%; to `NC[C@H]1CC[C@H](C(NC(=O)CC2CCCC2)c2ccccn2)CC1` (some centres undefined), -0.374%.
`CNc1ncccc1CN1CCCCC1c1ccnc(N)n1` (centres undefined): the cytotoxicity at 70.5 h was -3.08%.
In the case of `COc1ccccc1C(=O)NC(c1ccccn1)[C@H]1CC[C@H](CN)CC1` (some centres undefined) it was -4.28%.
As to `CN1CCc2nc(C3CCCN(C(=O)CC4CCCCC4)C3)ncc2C1` (centres undefined), the cytotoxicity at 70.5 h was found to be 0.186%.
`CN(C)S(=O)(=O)N1CCCC(c2cccc(Cc3ccc(F)cc3)n2)C1` (centres undefined): the cytotoxicity at 70.5 h was found to be 3.53%.
Regarding `COCCN1CCCC(c2nccnc2Nc2nc(C)cs2)C1` (centres undefined), the cytotoxicity at 70.5 h is -4.96%.
In the case of `CC(C)(C)NC(=O)Cn1c(=O)n(Cc2ccco2)c2ncccc21` it was -3.69%; in that of `CCc1cc(O)nc(C2CCCN(Cc3ccncc3)C2)n1` (centres undefined), -1.03%; in that of `COc1cc2nc3n(c(=O)c2cc1OC)CCN(C(=O)C1CC1)CC3`, 20%.
For the molecule `CCN1CCN(Cc2c(-c3ccco3)[nH]c3ncccc23)CC1`, the cytotoxicity at 70.5 h was -3.87%.
`Cc1ccc(C(=O)N2CCc3nc4c(C)csc4c(=O)n3CC2)cn1`: the cytotoxicity at 70.5 h was -4.08%.
To `O=C(C1CCCCC1)N1CCC(c2n[nH]c3nccnc23)CC1` belongs -2.95%.
In the case of `COCc1cc(O)nc(C2CCCN(Cc3ccc(F)cc3)C2)n1` (centres undefined) it was -0.561%.
In the case of `COCc1cc(O)nc(C2CCCN(Cc3cccc(OC)c3)C2)n1` (centres undefined) it was -1.68%.
As to `CCn1cc(C(=O)N2CCOC(c3nc(-c4cccs4)no3)C2)cn1` (centres undefined), the cytotoxicity at 70.5 h is -2.41%.
In the case of `O=C(N[C@@H]1CN(Cc2ccc(F)c(F)c2)C[C@H]1O)c1cscn1` it was -5.02%; in that of `Cc1ccc(C(=O)N2CCC3(CC(N(C)c4ccncn4)C3)C2)cn1` (centres undefined), -2.36%.
In the case of `Cc1noc(C)c1C(=O)N1CCC2(CC(N(C)c3ccncn3)C2)C1` (centres undefined) it was -6.65%.
In the case of `CC(=O)NC[C@]1(O)CCN(C(=O)c2ccc3c(c2)CCC3)C[C@H]1O` it was -3.52%; in that of `CC(=O)N1CCN([C@@H]2CC[C@@H](N(C)C(=O)C3CCCCC3)[C@H]2O)CC1`, -5.4%.
On to `Cc1ncsc1CN1CC[C@](C)(O)[C@@H](Oc2cccc(F)c2)C1`, for which the cytotoxicity at 70.5 h was -3.09%.
On to `CC(=O)NC[C@]1(O)CCN(C(=O)c2ccc3c(c2)OCO3)C[C@H]1O`, for which the cytotoxicity at 70.5 h was -4.98%.
To `Cc1ncsc1-c1nnc(C2CCN(Cc3cccc(Cl)c3)CC2)o1` belongs -1.29%; to `Cc1ncsc1-c1nnc(C2CCN(Cc3ccccc3Cl)CC2)o1`, -0.461%.
Turning to `COc1ccc(CN2CCC(c3nnc(-c4scnc4C)o3)CC2)cc1`, the cytotoxicity at 70.5 h was -3.83%.
As for `CN(C)[C@@H]1CN(C(=O)COc2cccc(F)c2)C[C@H]1O`, the cytotoxicity at 70.5 h was -9.79%.
In the case of `C[C@]1(O)CN(Cc2ccc(C(=O)O)cc2)CC[C@@H]1Oc1cccc(F)c1` it was -10.9%.
For `CCc1nccn1-c1cccc(C2CCCN2S(=O)(=O)N(C)C)n1` (centres undefined), the cytotoxicity at 70.5 h is -7.54%.
To `COCC(=O)N1CCC(c2n[nH]c3nccnc23)CC1` belongs -7.45%.
`CNc1ccc(CC2CCCN(C(=O)c3scnc3C)C2)nn1` (centres undefined): the cytotoxicity at 70.5 h is -5.63%.
Take `c1cnc(N2CCCC(c3n[nH]c4ncccc34)C2)nc1` (centres undefined): the cytotoxicity at 70.5 h is -4.04%.
To `Cc1ncccc1Oc1nccnc1C1CCN(S(C)(=O)=O)CC1` belongs -5.66%.
Take `CCc1cc(=O)[nH]c(-c2ccc(NC(C)COC)nc2)n1` (centres undefined): the cytotoxicity at 70.5 h was found to be 2.74%.
In the case of `c1ncc(-c2ccc(C3CNCCO3)nc2)cn1` (centres undefined) it was -3.27%.
For the molecule `Cc1cc(C[C@@H]2CCC[C@H]2NCc2ccccc2F)on1`, the cytotoxicity at 70.5 h was -2.37%.
In the case of `COc1ccc(CN2CCC(c3cc(O)nc(C)n3)C2)c(OC)c1` (centres undefined) it was -3.26%; in that of `CN(C)CCN(C)C(=O)Cc1ccc2c(c1)OCCO2`, 0.0835%; in that of `Cc1nc(O)cc(C2CCN(Cc3ccc(F)c(F)c3)C2)n1` (centres undefined), -5.53%.
As for `Cc1cccc(CN(Cc2cccnc2)C2CC(C)(C)NC(C)(C)C2)n1`, the cytotoxicity at 70.5 h was -1.41%.
As for `CNc1nc(C2CCCN2C(C)=O)nc2c1CN(CCO)CC2` (centres undefined), the cytotoxicity at 70.5 h is -3.16%.
